pIC50: −log10 of the molar value.
What was measured:
[1] = target: T1, Cholesteryl ester transfer protein (Homo sapiens, UniProt P11597); test: Inhibition of human recombinant CETP by fluorescence transfer assay
T1 sequence (P11597 whole entry): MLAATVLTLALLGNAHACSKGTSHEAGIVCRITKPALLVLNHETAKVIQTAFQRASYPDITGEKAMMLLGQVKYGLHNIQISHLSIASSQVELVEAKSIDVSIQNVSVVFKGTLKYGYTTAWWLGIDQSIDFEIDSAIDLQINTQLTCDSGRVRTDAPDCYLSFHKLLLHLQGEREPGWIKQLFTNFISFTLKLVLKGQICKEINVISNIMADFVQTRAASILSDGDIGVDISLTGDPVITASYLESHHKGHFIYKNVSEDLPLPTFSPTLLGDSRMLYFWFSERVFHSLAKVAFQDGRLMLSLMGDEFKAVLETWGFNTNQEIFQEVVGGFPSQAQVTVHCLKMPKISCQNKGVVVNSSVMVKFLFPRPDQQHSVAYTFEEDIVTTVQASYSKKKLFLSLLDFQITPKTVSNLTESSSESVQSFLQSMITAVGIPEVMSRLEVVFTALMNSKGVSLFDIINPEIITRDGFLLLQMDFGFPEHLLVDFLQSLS

[2] = Terminal elimination half life in healthy human administered as single oral dose; assay type: ADME, organism-based; conditions: in vivo, read-out: beta t1/2 (converted)

pIC50 [1] | half-life [2] | Structure (SMILES)
7.02 |  | CC(C)c1nc2c(c3c1[C@@H](c1ccc(C(F)(F)F)cn1)OC31CCCC1)[C@@H](O)CC(C)(C)C2
 | 221 h | CCOC(=O)N1c2ccc(C(F)(F)F)cc2[C@@H](N(Cc2cc(C(F)(F)F)cc(C(F)(F)F)c2)C(=O)OC)C[C@H]1CC [TORCETRAPIB]

Reference: ChEMBL document CHEMBL3351249, “Potent cholesteryl ester transfer protein inhibitors of reduced lipophilicity: 1,1'-spiro-substituted hexahydrofuroquinoline derivatives” (J Med Chem, 2014)
